Measured values as given in patent US20250235501A1, “Methods and Compositions for Treating or Preventing Neurological Injury or Neurological Disorders” (University of Connecticut, priority 2024, published 2025).

Legend:
[1] = tested on: ERK1/2 and CREB activities (pERK1/2, pCREB); test: ERK1/2 and CREB activities in cultured neurons (WB); type: cell-based, mouse; conditions: WT neurons pre-incubated with peptide overnight, vs control
Method: FIGS. 7F-7H show the effects of TAT-EE3 on ERK1/2 and CREB activities in cultured neurons isolated from gM2KO and nM2KO mice, and WT littermates. WT neurons were treated with TAT-EE3 or TAT-SC for overnight before the experiments. Neurons were incubated for 1 h before experiments with 1) control (PBS), 2) NMDA (10 μM) to activate synaptic and extrasynaptic NMDARs, and 3) 4-AP 2.5 mM plus biccuculine (Bic) 50 μM (4-AP/Bic) to activate synaptic NMDARs. […] FIGS. 7G and 7H show the quantification of the active CERB and ERK1/2 in each group under three different treatment conditions (***, p<0.001; ANOVA, Bonferroni's test; mean±SEM, n=3).
Mice pups at P0 were euthanized based on animal protocol. Whole brain was dissected out immediately and immersed in ice-cold Hank's Balanced Salt Solution (HBSS). Meninges were removed thoroughly, and tissue of different brain areas was taken based on purposes. Brain tissue was cut into small pieces and digested with 0.25% trypsin (Thermal Fisher Scientific, 15090-046) in HBSS at 37° C. for 20 min. Digestion solution was quickly removed, and tissue pellets are washed with Neurobasal® Medium (Thermal Fisher Scientific, 21103-049) for 3 times. Cells were resuspended with appropriate amount of Neurobasal® Medium supplemented with 2% B27® supplement (Thermal Fisher Scientific, 17504-044), 3% horse serum (Thermal Fisher Scientific, 16050114), 0.25% L-glutamine (Thermal Fisher Scientific, 25030-081) and 1% penicillin/streptomycin (Thermal Fisher Scientific, 15140-122). Isolated cells were counted and plated on coverslips pre-coated with poly-L-lysine (Sigma-Aldrich, P4707) at a density about 500×10^3 cells/cm2 for OGD and H2O2 treatment, and 100×10^3 cells/cm2 for current recording. Cytosine arabinoside (Sigma-Aldrich, C1768) was added to maintain a concentration at 1 μM to inhibit the proliferation of non-neuronal cells. 24 h after plating, culture medium was changed to Neurobasal® Medium supplemented with 2% B27® supplement, 0.25% L-glutamine and 1% penicillin/streptomycin. The concentration of Cytosine arabinoside (araC) was increased to 2 μM. Medium was changed every 3 days. OGD and H2O2 treatment was conducted at 7th day of culture, and current recording was conducted at 7th, 10th and 14th day of culture.
NP-40/Triton lysis buffer ([…], 1% Triton™ X-100, 150 mM NaCl, 1 mM EDTA, 50 mM Tris, pH=8.0) containing proteinase inhibitors and phosphatase inhibitors was used to lyse both cultured cells and frozen brain tissue. […] Protein concentration was measured using Pierce™ Rapid Gold BCA Protein Assay Kit.
30-50 μg of total protein was loaded and separated proteins were transferred to Nitrocellulose membranes. […] Band intensity was quantified using ImageJ software and normalized with appropriate loading controls.

[2] = tested on: cultured cortical neurons; test: Mitochondrial function under OGD, Rh123 de-quenching assay; type: cell-based, mouse; conditions: WT neurons; 10 μM peptide overnight; 30 min OGD
Method: FIGS. 6F-6G show the effects of TAT-EE3 on mitochondrial function evaluated using R123 de-quenching assay. Cultured cortical from gM2KO mice, nM2KO mice and WT control littermates were incubated with 10 μM TAT-SC or TAT-EE3 for overnight before OGD exposure. […] External perfusion solution aCSF containing no Ca2+ (No Ca2+) was used as a control. WT neuron without OGD exposure was used as a control (WT control) to illustrate the rapid photo bleaching of Rh123. […] The accumulated numbers of neurons in each group for data analysis were from 3˜5 independent experiments using neurons isolated from 3 mice/group (***, p<0.001; ANOVA, Bonferroni's test; mean±SEM).
Mice pups at P0 were euthanized based on animal protocol. Whole brain was dissected out immediately and immersed in ice-cold Hank's Balanced Salt Solution (HBSS). […] Isolated cells were counted and plated on coverslips pre-coated with poly-L-lysine (Sigma-Aldrich, P4707) at a density about 500×10^3 cells/cm2 for OGD and H2O2 treatment, and 100×10^3 cells/cm2 for current recording. […]
Mitochondria function was evaluated using Rhodamine-123 dequenching as previously reported. […]
Fluorescence intensities at 509 nm with excitation at 488 nm was collected every 15 s for 30 min using CoolSNAP HQ2 (Photometrics) and data were analyzed using NIS-Elements (Nikon).

[3] = 4-AP 2.5 mM plus bicuculline 50 μM 1 h

Substance: TAT-EE3: membrane permeable disrupting peptide, sequence YGRKKRRQRRREEDTDSSEEMLALAEE (SEQ ID NO: 4)
- pCREB level after 4-AP/Bic treatment [1, 3]: increased
- pERK1/2 level after 4-AP/Bic treatment [1, 3]: increased
- pCREB level after NMDA treatment ([1]; NMDA 10 μM 1 h): increased
- pERK1/2 level after NMDA treatment ([1]; NMDA 10 μM 1 h): increased
- mitochondrial membrane depolarization induced by OGD (Rh123 fluorescence) [2]: markedly inhibited
